Assay results as given in patent publication US20150342899A1 (NOVEN PHARMACEUTICALS, INC., priority 2012, published 2015).

Assay: in vitro flux study with human cadaver skin using a Franz cell apparatus
Assay type: in vitro ADME
Description: An in vitro flux study was conducted with human cadaver skin using a Franz cell apparatus to determine the flux of each drug from the matrix over a 24-hour period.

Clc1cccc(Cl)c1N=C1NCCN1 [clonidine]
pharmacokinetic (delivery) profile: delivered over an extended period of time

CC(N)Cc1ccccc1 (stereo not drawn) [amphetamine, alpha-methylphenethylamine]
flux of drug from the matrix (transdermal system from polymer matrix of Example 1, about 1.05 mg/cm^2 amphetamine and about 0.28 mg/cm^2 clonidine, 24-hour period, FIG. 1, one sample): sufficient to achieve a therapeutic effect
